From patent US5036083A, “Heterocyclic agents” (ICI Pharma, priority 1988, dated 1991)

Key:
5-LO [1] = target: T1, 5-LO (Cavia porcellus, UniProt A0A286X958); assay: Test (a): in vitro spectrophotometric cell-free enzyme assay, 5-LO isolated from guinea pig neutrophils; format: biochemical; conditions: 5-LO from guinea pig neutrophils
T1 construct: cell free system using 5-LO isolated from guinea pig neutrophils; endogenous in cells; host or cells: guinea pig neutrophils
T1 sequence (A0A286X958 1-674): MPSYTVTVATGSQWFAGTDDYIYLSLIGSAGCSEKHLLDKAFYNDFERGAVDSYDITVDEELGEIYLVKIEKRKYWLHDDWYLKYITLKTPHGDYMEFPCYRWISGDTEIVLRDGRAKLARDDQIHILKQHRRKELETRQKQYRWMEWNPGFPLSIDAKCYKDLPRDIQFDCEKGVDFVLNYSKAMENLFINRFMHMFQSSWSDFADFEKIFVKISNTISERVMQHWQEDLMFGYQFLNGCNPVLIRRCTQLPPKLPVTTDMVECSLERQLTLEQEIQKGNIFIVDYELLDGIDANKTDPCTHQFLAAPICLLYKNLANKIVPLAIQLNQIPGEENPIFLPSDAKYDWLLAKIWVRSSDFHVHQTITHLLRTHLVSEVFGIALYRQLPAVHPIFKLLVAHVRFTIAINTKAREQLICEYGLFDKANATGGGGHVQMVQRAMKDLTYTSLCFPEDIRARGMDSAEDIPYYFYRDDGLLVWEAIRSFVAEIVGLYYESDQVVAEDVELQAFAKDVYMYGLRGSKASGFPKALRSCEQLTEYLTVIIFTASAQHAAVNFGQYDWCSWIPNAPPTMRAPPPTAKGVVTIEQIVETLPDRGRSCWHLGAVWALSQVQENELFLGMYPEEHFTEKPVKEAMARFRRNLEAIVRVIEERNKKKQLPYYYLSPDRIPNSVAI
Text: (a) An in vitro spectrophotometric enzyme assay system, which assesses the inhibitory properties of a test compound in a cell free system using 5-LO isolated from guinea pig neutrophils and as described by D. Aharony and R. L. Stein (J. Biol. Chem., 1986, 261(25), 11512-11519). This test provides a measure of the intrinsic inhibitory properties against soluble 5-LO in an extracellular environment.

cyclooxygenase = target: T2, cyclooxygenase (Rattus norvegicus, UniProt Q63921); assay: Test (b): heparinised rat blood challenged with A23187, PGE2 radioimmunoassay; format: cell-based
T2 construct: incubating a test compound with heparinised rat blood; from tissue; host or cells: heparinised rat blood
T2 sequence (Q63921 27-602): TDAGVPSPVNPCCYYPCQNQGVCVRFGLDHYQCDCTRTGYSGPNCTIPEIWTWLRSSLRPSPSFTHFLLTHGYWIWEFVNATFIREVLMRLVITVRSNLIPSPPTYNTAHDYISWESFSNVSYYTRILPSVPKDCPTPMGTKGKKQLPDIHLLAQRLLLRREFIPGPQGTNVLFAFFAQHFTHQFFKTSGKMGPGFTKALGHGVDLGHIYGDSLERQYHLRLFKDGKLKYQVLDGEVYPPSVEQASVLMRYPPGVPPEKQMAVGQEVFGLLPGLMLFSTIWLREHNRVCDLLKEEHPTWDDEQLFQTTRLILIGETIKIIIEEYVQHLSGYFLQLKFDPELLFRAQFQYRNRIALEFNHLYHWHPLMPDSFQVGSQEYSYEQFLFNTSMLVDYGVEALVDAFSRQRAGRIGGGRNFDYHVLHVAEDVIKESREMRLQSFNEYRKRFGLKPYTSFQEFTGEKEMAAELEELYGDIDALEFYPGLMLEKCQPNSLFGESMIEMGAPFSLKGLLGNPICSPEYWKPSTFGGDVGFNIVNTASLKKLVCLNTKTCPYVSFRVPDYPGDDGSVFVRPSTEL
Experimental: (§1) (b) An in vitro assay system involving incubating a test compound with heparinised rat blood, prior to challenge with the calcium ionophore A23187 and then indirectly measuring the inhibitory effects on 5-LO by assaying the amount of LTB4 using the specific radioimmunoassay described by Carey and Forder (F. Carey and R. A. Forder, Brit. J. Pharmacol. 1985, 84, 34P) which involves the use of a protein-LTB4 conjugate produced using the procedure of Young et alia Prostaglandins, 1983, 26(4), 605-613). The effects of a test compound on the enzyme cyclooxygenase (which is involved in the alternative metabolic pathway for arachidonic acid and gives rise to prostaglandins, thromboxanes and related metabolites) may be measured at the same time using the specific radioimmunoassay for prostaglandin E2 (PGE2) described by Carey and Forder (see above). This test provides an indication of the effects of a test compound against 5-LO and also cyclooxygenase in the presence of blood cells and proteins. It permits the selectivity of the inhibitory effect on 5-LO or cyclooxygenase to be assessed.

5-LO [2] = target: T3, 5-LO (Rattus norvegicus, UniProt P12527); assay: Test (c): ex vivo assay, oral dosing, blood challenged with A23187, LTB4 radioimmunoassay; format: in vivo; design: blood collection, heparinisation, challenge with A23187 and radioimmunoassay of LTB4 and PGE2; from tissue; host or cells: blood of dosed animals, heparinised ex vivo; conditions: A23187 challenge
T3 sequence (P12527 1-673): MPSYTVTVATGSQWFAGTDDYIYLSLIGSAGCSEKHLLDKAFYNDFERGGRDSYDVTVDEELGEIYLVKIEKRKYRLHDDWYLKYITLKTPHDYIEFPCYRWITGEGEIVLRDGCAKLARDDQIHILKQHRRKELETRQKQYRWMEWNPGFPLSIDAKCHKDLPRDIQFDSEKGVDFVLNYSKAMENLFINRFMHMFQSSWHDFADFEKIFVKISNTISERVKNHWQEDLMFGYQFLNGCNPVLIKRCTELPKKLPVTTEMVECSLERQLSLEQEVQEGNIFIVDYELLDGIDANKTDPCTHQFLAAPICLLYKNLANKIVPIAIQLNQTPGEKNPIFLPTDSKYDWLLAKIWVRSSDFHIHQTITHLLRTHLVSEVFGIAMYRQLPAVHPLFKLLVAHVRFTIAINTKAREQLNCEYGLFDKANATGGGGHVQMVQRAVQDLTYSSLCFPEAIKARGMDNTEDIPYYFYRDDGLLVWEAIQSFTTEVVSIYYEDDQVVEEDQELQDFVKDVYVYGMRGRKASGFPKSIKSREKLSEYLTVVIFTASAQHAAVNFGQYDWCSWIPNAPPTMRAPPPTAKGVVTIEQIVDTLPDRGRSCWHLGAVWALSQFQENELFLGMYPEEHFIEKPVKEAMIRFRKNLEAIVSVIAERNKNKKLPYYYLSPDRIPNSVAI
Experimental: (c) An ex vivo assay system, which is a variation of test b) above, involving administration of a test compound (usually orally as the suspension produced when a solution of the test compound in dimethylsulphoxide is added to carboxymethylcellulose), blood collection, heparinisation, challenge with A23187 and radioimmunoassay of LTB4 and PGE2. This test provides an indication of the bioavailability of a test compound as an inhibitor of 5-LO or cyclooxygenase.

5-LO [3] = target: T3, 5-LO; assay: Test (b): heparinised rat blood challenged with A23187, LTB4 radioimmunoassay; format: cell-based; design: incubating a test compound with heparinised rat blood; from tissue; host or cells: heparinised rat blood
Experimental: as §1

dogs = assay: Induction of methaemoglobin formation in dogs dosed orally; format: in vivo, dog; conditions: oral, 5 mg/kg
Text: In copending European Application No. 88300281.8 (published 28th Sept., 1988 as EP 0284174 Al) it is disclosed that certain indazolone derivatives are effective as inhibitors of the enzyme 5-LO and thus of leukotriene biosyntheses.

IC50 (5-LO [1]) [µM]	IC50 (cyclooxygenase) [µM]	ED50 (5-LO [2]) [mg/kg]	IC50 (5-LO [3]) [µM]	SMILES	induction of methaemoglobin formation (dogs)
3.1	72	30 to 100	1.4	CCCCCNC(=O)c1cccc2[nH]n(C)c(=O)c12 [Example 5, 1,2-dihydro-2-methyl-4-(N-n-pentylcarbamoyl)-3H-indazol-3-one]	–
–	–	–	–	O=c1c2ccccc2[nH]n1Cc1cccnc1 [1,2-dihydro-2-(3-pyridylmethyl) 3H indazol-3-one]	causes induction of methaemoglobin formation
